According to the NIST ThermoML archive (doi:10.1021/je800849s):
Numbers after ± are expanded uncertainties.

Settings: Liquid, Closed cell (Static) method

CCC [propane]
vapor or sublimation pressure (263.3 K): 344 ± 1 kPa
vapor or sublimation pressure (283.25 K): 639 ± 2 kPa
vapor or sublimation pressure (291.22 K): 795 ± 3 kPa
vapor or sublimation pressure (296.23 K): 906 ± 3 kPa
vapor or sublimation pressure (308.21 K): 1221 ± 4 kPa
vapor or sublimation pressure (323.19 K): 1715 ± 5 kPa
